# Laboratory results taken from patent publication US7456161B2 (Epigenesis Pharmaceuticals, LLC, priority 2001, dated 2008).
# Entries after “also recorded” stand apart in the source; their conditions may differ.
# How the values were obtained:
# Intracellular Adenosine = test: In vivo effect on adenosine levels in various rat tissues (HPLC, spectrofluorometric detection)
# Description: Folinic acid (50 mg/kg) was administered intraperitoneally once daily for fourteen days. […] Hearts were removed from animals and flash frozen in liquid nitrogen with 10 seconds of death. Liver and lungs were removed en bloc and flash frozen within 30 seconds of death. Brain tissue was subsequently dissected.
# HT-29 SF cells [1] = test: Cell cycle distribution by flow cytometry (propidium iodide) and reversal of the DHEA effect; format: cell-based, human; details: for cell morphology: HT-29 SF cells exposed to DHEA, data not shown
# HT-29 SF cells [2] = test: DHEA effect on cell growth (cell number, Coulter counter) and its reversal by supplements; format: cell-based, human; details: 12.5-200 μM, 24-72 hours
structure (smiles),measurement,setting,value
"Nc1nc(=O)c2c([nH]1)NCC(CNc1ccc(C(=O)N[C@@H](CCC(=O)O)C(=O)O)cc1)N2C=O (mixture of isomers) [Folinic Acid (F.A.), Folinic acid]",effect on tissue adenosine levels (in words),"Intracellular Adenosine; rats, daily for two weeks, listed as Folinic acid",increase in adenosine levels for all organs studied
same,effect on tissue adenosine levels (in words),"Intracellular Adenosine; rats, daily for two weeks, listed as folinic acid",completely abrogated steroid-mediated adenosine depletion
"C[C@]12CC[C@H](O)CC1=CC[C@@H]1[C@@H]2CC[C@]2(C)C(=O)CC[C@@H]12 [DHEA, (3β)-3-hydroxyandrost-5-en-17-one]",cell cycle distribution,"HT-29 SF cells [1]; 200 μM DHEA, after 24 hours",increase in the percentage of cells in G1 and a decreased proportion of cells in S phase
same,"effect on cell cycle (G1, S phase) with time of exposure (in words)","HT-29 SF cells [1]; 25-200 μM DHEA, 24-72 hours",G1 block in HT-29 SF cells in a time-and dose-dependent manner; also recorded: progressively reduced the proportion of cells in S phase
same,cell morphology,HT-29 SF cells [1],acquiring a rounded shape
same,inhibition of growth of HT-29 SF cells (in words),HT-29 SF cells [2],time- and dose-dependent inhibition of growth
same,effect on tissue adenosine levels (in words),"Intracellular Adenosine; rat, in vivo",multi-organ depletion of adenosine
"C[C@@](O)(CCO)CC(=O)O [MVA, mevalonic acid, reference compound]",prevention of DHEA-induced S phase depletion,"HT-29 SF cells [1]; 25 FM DHEA, 72 hours",not after 72 hours
same,cell morphology,HT-29 SF cells [1],prevented only by the addition of MVA
"C[C@]12CCC(=O)C=C1CC[C@@H]1[C@@H]2CC[C@@]2(C)[C@H]1CC[C@]2(C)O [Methyltestosterone, methyltestosterone]",effect on tissue adenosine levels (in words),"Intracellular Adenosine; rats, daily for two weeks",multi-organ depletion of adenosine
